Measured values published in ChEMBL document CHEMBL5331107 (J Med Chem, 2023).

Columns and labels:
[1] = system: Human immunodeficiency virus 1; experiment: Antiviral activity against NNRTI-resistant HIV-1 harboring L100I mutant infected in human MT4 cells assessed as protection against virus-induced cytopathic effect incubated for 5 days by MTT assay; format: functional, organism-based; conditions: Human immunodeficiency virus 1, MT4, 120 h
[2] = system: Human immunodeficiency virus 1; format: functional, organism-based; conditions: Human immunodeficiency virus 1, MT4, 120 h
[3] = system: Human immunodeficiency virus 1; experiment: Antiviral activity against NNRTI-resistant HIV-1 harboring K103N mutant infected in human MT4 cells assessed as protection against virus-induced cytopathic effect incubated for 5 days by MTT assay; format: functional, organism-based; conditions: Human immunodeficiency virus 1, MT4, 120 h
in vitro [4] = conditions: human, MT4 cells
Description: Selectivity index, ratio of CC50 for cytotoxicity against human MT4 cells to EC50 for antiviral activity against wildtype HIV-1 IIIB infected in human MT4 cells

in vitro [5] = conditions: human, MT4 cells; remark: listed apart in the source
Description: Selectivity index, ratio of CC50 for cytotoxicity against human MT4 cells to EC50 for antiviral activity against NNRTI-resistant HIV-1 harboring E138K mutant infected in human MT4 cells

[6] = system: Human immunodeficiency virus 1; format: functional, organism-based; conditions: Human immunodeficiency virus 1, MT4, 120 h; remark: listed apart in the source
[7] = target: Human immunodeficiency virus type 1 reverse transcriptase (Human immunodeficiency virus 1, UniProt Q72547); experiment: Inhibition of HIV-1 reverse transcriptase assessed as assessed as reduction of biotin-dUTP incorporation into […] incubated for 1 hrs by ELISA analysis
in vitro [8] = conditions: human, MT4 cells; remark: listed apart in the source
Description: Selectivity index, ratio of CC50 for cytotoxicity against human MT4 cells to EC50 for antiviral activity against NNRTI-resistant HIV-1 harboring L100I mutant infected in human MT4 cells

[9] = system: Human immunodeficiency virus 1; experiment: microbe, parasite or virus in culture; conditions: Human immunodeficiency virus 1, IIIB, MT4, 120 h
Description: Antiviral activity against wild type HIV-1 IIIB infected in human MT4 cells assessed as protection against virus-induced cytopathic effect incubated for 5 days by MTT assay

[10] = system: Human immunodeficiency virus 1; experiment: Antiviral activity against NNRTI-resistant HIV-1 harboring F227L and V106A double mutant infected in human MT4 cells assessed as protection against virus-induced cytopathic effect incubated for 5 days by MTT assay; format: functional, organism-based; conditions: Human immunodeficiency virus 1, MT4, 120 h
in vitro [11] = conditions: human, MT4 cells; remark: listed apart in the source
Description: Selectivity index, ratio of CC50 for cytotoxicity against human MT4 cells to EC50 for antiviral activity against NNRTI-resistant HIV-1 harboring Y181C mutant infected in human MT4 cells

[12] = system: Human immunodeficiency virus 1; format: functional, organism-based; conditions: Human immunodeficiency virus 1, MT4, 120 h; remark: listed apart in the source
in vitro [13] = conditions: human, MT4 cells; remark: listed apart in the source
Description: Selectivity index, ratio of CC50 for cytotoxicity against human MT4 cells to EC50 for antiviral activity against NNRTI-resistant HIV-1 harboring K103N and Y181C mutant infected in human MT4 cells

in vitro [14] = conditions: human, MT4 cells; remark: listed apart in the source
Description: Selectivity index, ratio of CC50 for cytotoxicity against human MT4 cells to EC50 for antiviral activity against NNRTI-resistant HIV-1 harboring K103N mutant infected in human MT4 cells

[15] = Cytotoxicity against human MT4 cells assessed as reduction in cell viability incubated for 5 days by MTT assay; format: toxicity, cell-based; conditions: time 5 day
[16] = system: Human immunodeficiency virus 1; experiment: Antiviral activity against NNRTI-resistant HIV-1 harboring E138K mutant infected in human MT4 cells assessed as protection against virus-induced cytopathic effect incubated for 5 days by MTT assay; format: functional, organism-based; conditions: Human immunodeficiency virus 1, MT4, 120 h
in vitro [17] = conditions: human, MT4 cells; remark: listed apart in the source
Description: Selectivity index, ratio of CC50 for cytotoxicity against human MT4 cells to EC50 for antiviral activity against NNRTI-resistant HIV-1 harboring F227L and V106A mutant infected in human MT4 cells

in vitro [18] = conditions: human, MT4 cells; remark: listed apart in the source
Description: Selectivity index, ratio of CC50 for cytotoxicity against human MT4 cells to EC50 for antiviral activity against NNRTI-resistant HIV-1 harboring Y188L mutant infected in human MT4 cells

| Structure (SMILES) | EC50 [1] [nM] | EC50 [2] [nM] | EC50 [3] [nM] | selectivity ratio (in vitro [4]) | selectivity ratio (in vitro [5]) | EC50 [6] [nM] | IC50 [7] [nM] | selectivity ratio (in vitro [8]) | EC50 [9] [nM] | EC50 [10] [nM] | selectivity ratio (in vitro [11]) | EC50 [12] [nM] | selectivity ratio (in vitro [13]) | selectivity ratio (in vitro [14]) | CC50 at 120 h [15] [nM] | EC50 [16] [nM] | selectivity ratio (in vitro [17]) | selectivity ratio (in vitro [18]) |
| --- | --- | --- | --- | --- | --- | --- | --- | --- | --- | --- | --- | --- | --- | --- | --- | --- | --- | --- |
| Cc1cc(C#N)cc(C)c1Oc1nc(Nc2ccc(C#N)cc2)nc2c1CN(Cc1ccc(S(C)(=O)=O)cc1)CC2 | 160 | 118 | 8.72 | > 25400 | > 5110 | 41.3 | 234 | > 1380 | 8.7 | 234 | > 5360 | 36.6 | > 1880 | > 25400 | > 221000 | 43.3 | > 944 | > 6050 |
| COc1cccc(C(=O)N2CCc3nc(Nc4ccc(C#N)cc4)nc(Oc4c(C)cc(C#N)cc4C)c3C2)c1 | – | – | 8.01 | 653 | 144 | – | 180 | – | 7.32 | – | – | – | – | 597 | 4780 | 33.3 | – | – |
| COc1ccc(C(=O)N2CCc3nc(Nc4ccc(C#N)cc4)nc(Oc4c(C)cc(C#N)cc4C)c3C2)cc1 | – | – | 9.56 | 4800 | 682 | – | 211 | – | 6.76 | – | – | – | – | 3390 | 32400 | 47.5 | – | – |
| Cc1cc(C#N)cc(C)c1Oc1nc(Nc2ccc(C#N)cc2)nc2c1CN(Cc1ccc(S(N)(=O)=O)cc1)CC2 | 72.6 | 89.9 | 7.56 | > 33400 | > 5570 | 34.4 | 126 | > 3040 | 6.62 | 135 | > 6430 | 31.8 | > 2460 | > 29200 | > 221000 | 39.7 | > 1640 | > 6940 |
| Cc1cc(C#N)cc(C)c1Oc1nc(Nc2ccc(C#N)cc2)nc2c1CN(C(=O)c1cccc(C(F)(F)F)c1)CC2 | – | – | 36.1 | > 7930 | > 1450 | – | 313 | – | 27.7 | – | – | – | – | > 6090 | > 220000 | 152 | – | – |
| Cc1cc(C#N)cc(C)c1Oc1nc(Nc2ccc(C#N)cc2)nc2c1CN(Cc1ccccc1)CC2 | – | – | 27.6 | 2740 | 507 | – | 225 | – | 19.1 | – | – | – | – | 1890 | 52100 | 103 | – | – |
| Cc1ccc(C(=O)N2CCc3nc(Nc4ccc(C#N)cc4)nc(Oc4c(C)cc(C#N)cc4C)c3C2)cc1 | 94.6 | 182 | 7.14 | > 34300 | > 10300 | 49.7 | 236 | > 2570 | 7.08 | 314 | > 4890 | 50.5 | > 1340 | > 34000 | > 243000 | 23.5 | > 774 | > 4810 |
| COC(=O)c1ccc(C(=O)N2CCc3nc(Nc4ccc(C#N)cc4)nc(Oc4c(C)cc(C#N)cc4C)c3C2)cc1 | – | – | 45.8 | > 10600 | > 817 | – | 237 | – | 21.1 | – | – | – | – | > 4890 | > 224000 | 274 | – | – |
| Cc1cc(C#N)cc(C)c1Oc1nc(Nc2ccc(C#N)cc2)nc2c1CN(C(=O)c1cccc(F)c1)CC2 | – | – | 9.5 | 551 | 152 | – | 207 | – | 9.12 | – | – | – | – | 529 | 5020 | 33 | – | – |
| Cc1cc(C#N)cc(C)c1Oc1nc(Nc2ccc(C#N)cc2)nc2c1CN(C(=O)c1cccc(C#N)c1)CC2 | – | – | 10.4 | > 30600 | > 5950 | – | 161 | – | 7.77 | – | – | – | – | > 22800 | > 238000 | 40 | – | – |
| Cc1cc(C#N)cc(C)c1Oc1nc(Nc2ccc(C#N)cc2)nc2c1CN(C(=O)c1ccc(F)cc1)CC2 | – | – | 8.97 | 736 | 270 | – | 154 | – | 8.84 | – | – | – | – | 726 | 6510 | 24.1 | – | – |
| Cc1cc(C#N)cc(C)c1Oc1nc(Nc2ccc(C#N)cc2)nc2c1CN(S(=O)(=O)N(C)C)CC2 | – | – | 8.19 | 7910 | 2060 | – | 84 | – | 7.94 | – | – | – | – | 7670 | 62800 | 30.5 | – | – |
| Cc1cc(C#N)cc(C)c1Oc1nc(Nc2ccc(C#N)cc2)nc2c1CN(C(=O)c1ccc(C(F)(F)F)cc1)CC2 | – | – | 44 | > 7640 | > 1670 | – | 297 | – | 28.8 | – | – | – | – | > 5000 | > 220000 | 132 | – | – |
| Cc1cc(C#N)cc(C)c1Oc1nc(Nc2ccc(C#N)cc2)nc2c1CN(Cc1ccc(B(O)O)cc1)CC2 | – | – | 15.5 | 787 | 211 | – | 180 | – | 14.9 | – | – | – | – | 758 | 11800 | 55.7 | – | – |
| Cc1cc(C#N)cc(C)c1Oc1nc(Nc2ccc(C#N)cc2)nc2c1CNCC2 | 33.2 | 383 | 3.09 | 10400 | 3520 | 45.4 | 57 | 595 | 1.89 | 136 | 435 | 19.5 | 51 | 6380 | 19700 | 5.61 | 145 | 1010 |
| Cc1cc(C#N)cc(C)c1Oc1nc(Nc2ccc(C#N)cc2)nc2c1CN(C(=O)c1cccc([N+](=O)[O-])c1)CC2 | – | – | 7.15 | > 28600 | > 5330 | – | 169 | – | 8 | – | – | – | – | > 32100 | > 229000 | 43 | – | – |
| Cc1cc(C#N)cc(C)c1Oc1nc(Nc2ccc(C#N)cc2)nc2c1CN(C(=O)c1ccc(C#N)cc1)CC2 | – | – | 16.2 | > 23000 | > 5090 | – | 154 | – | 10.3 | – | – | – | – | > 14700 | > 238000 | 46.8 | – | – |
| O=C1Nc2ccc(Cl)cc2[C@@](C#CC2CC2)(C(F)(F)F)O1 [EFAVIRENZ] | 753 | 433 | 133 | – | – | 7.87 | – | – | – | – | – | 425 | – | – | > 6350 | 6.82 | – | – |
| Cc1ccnc2c1NC(=O)c1cccnc1N2C1CC1 [NEVIRAPINE] | 2290 | > 15000 | 7790 | – | – | 8950 | – | – | 155 | > 15000 | – | > 15000 | – | – | > 15000 | 205 | – | – |
